From the NIST ThermoML archive (doi:10.1021/je0503554)
± gives the expanded uncertainty stated by the source.

Assay: activity coefficient (dimensionless); of the first substance listed, at infinite dilution; xn = mol fraction of the nth substance listed
Settings: Liquid, Chromatography, x1 = 0

## CCCCCCCC [octane] + CCCCCC[n+]1ccn(C)c1.O=S(=O)([N-]S(=O)(=O)C(F)(F)F)C(F)(F)F
300.95 K
  activity coefficient: 15.2 ± 1
312.25 K
  activity coefficient: 14.3 ± 0.98
322.85 K
  activity coefficient: 13.2 ± 0.9
333.25 K
  activity coefficient: 12.2 ± 0.84
343.75 K
  activity coefficient: 11.5 ± 0.78

## CCCCCO [pentan-1-ol] + CCCCCC[n+]1ccn(C)c1.O=S(=O)([N-]S(=O)(=O)C(F)(F)F)C(F)(F)F
333.25 K
  activity coefficient: 2.18 ± 0.15
343.75 K
  activity coefficient: 2 ± 0.14
354.05 K
  activity coefficient: 1.8 ± 0.12
364.55 K
  activity coefficient: 1.63 ± 0.11
374.95 K
  activity coefficient: 1.51 ± 0.1

## CCCCC=O [pentanal] + CCCCCC[n+]1ccn(C)c1.O=S(=O)([N-]S(=O)(=O)C(F)(F)F)C(F)(F)F
301.75 K
  activity coefficient: 1.11 ± 0.07
312.25 K
  activity coefficient: 1.1 ± 0.07
322.85 K
  activity coefficient: 1.08 ± 0.068
333.35 K
  activity coefficient: 1.06 ± 0.067
343.55 K
  activity coefficient: 1.05 ± 0.066
354.05 K
  activity coefficient: 1.03 ± 0.065
364.45 K
  activity coefficient: 1.01 ± 0.063
374.95 K
  activity coefficient: 0.99 ± 0.062

## CCCCC [pentane] + CCCCCC[n+]1ccn(C)c1.O=S(=O)([N-]S(=O)(=O)C(F)(F)F)C(F)(F)F
301.95 K
  activity coefficient: 6.26 ± 0.43
312.45 K
  activity coefficient: 5.44 ± 0.37
323.05 K
  activity coefficient: 5.33 ± 0.36
333.45 K
  activity coefficient: 4.72 ± 0.32
343.95 K
  activity coefficient: 4.09 ± 0.28

## CCCCCc1ccccc1 [pentylbenzene] + CCCCCC[n+]1ccn(C)c1.O=S(=O)([N-]S(=O)(=O)C(F)(F)F)C(F)(F)F
364.65 K
  activity coefficient: 3.38 ± 0.23
375.15 K
  activity coefficient: 3.37 ± 0.23
385.65 K
  activity coefficient: 3.37 ± 0.23

## CCCO [propan-1-ol] + CCCCCC[n+]1ccn(C)c1.O=S(=O)([N-]S(=O)(=O)C(F)(F)F)C(F)(F)F
312.45 K
  activity coefficient: 2.15 ± 0.15
323.05 K
  activity coefficient: 1.86 ± 0.13
333.45 K
  activity coefficient: 1.63 ± 0.11
343.95 K
  activity coefficient: 1.43 ± 0.09
354.45 K
  activity coefficient: 1.27 ± 0.08

## CC(C)O [propan-2-ol] + CCCCCC[n+]1ccn(C)c1.O=S(=O)([N-]S(=O)(=O)C(F)(F)F)C(F)(F)F
301.65 K
  activity coefficient: 1.93 ± 0.13
312.25 K
  activity coefficient: 1.68 ± 0.11
322.75 K
  activity coefficient: 1.49 ± 0.1
333.25 K
  activity coefficient: 1.33 ± 0.09
343.75 K
  activity coefficient: 1.21 ± 0.08
354.05 K
  activity coefficient: 1.09 ± 0.07

## CCC=O [propanal] + CCCCCC[n+]1ccn(C)c1.O=S(=O)([N-]S(=O)(=O)C(F)(F)F)C(F)(F)F
301.75 K
  activity coefficient: 0.453 ± 0.036
312.25 K
  activity coefficient: 0.45 ± 0.036
322.85 K
  activity coefficient: 0.444 ± 0.036
333.35 K
  activity coefficient: 0.439 ± 0.035

## CCCc1ccccc1 [propylbenzene] + CCCCCC[n+]1ccn(C)c1.O=S(=O)([N-]S(=O)(=O)C(F)(F)F)C(F)(F)F
333.35 K
  activity coefficient: 2.1 ± 0.14
343.85 K
  activity coefficient: 2.08 ± 0.14
354.25 K
  activity coefficient: 2.03 ± 0.14
364.65 K
  activity coefficient: 2.02 ± 0.14
375.15 K
  activity coefficient: 2 ± 0.14
385.65 K
  activity coefficient: 1.96 ± 0.13

## Cc1ccccc1 [toluene] + CCCCCC[n+]1ccn(C)c1.O=S(=O)([N-]S(=O)(=O)C(F)(F)F)C(F)(F)F
307.05 K
  activity coefficient: 1.04 ± 0.07
312.35 K
  activity coefficient: 1.04 ± 0.07
322.85 K
  activity coefficient: 1.06 ± 0.07
333.35 K
  activity coefficient: 1.06 ± 0.07
343.85 K
  activity coefficient: 1.08 ± 0.07

## ClC(Cl)Cl [trichloromethane] + CCCCCC[n+]1ccn(C)c1.O=S(=O)([N-]S(=O)(=O)C(F)(F)F)C(F)(F)F
301.75 K
  activity coefficient: 0.67 ± 0.045
301.85 K
  activity coefficient: 0.67 ± 0.045
312.25 K
  activity coefficient: 0.68 ± 0.046
312.45 K
  activity coefficient: 0.68 ± 0.046
322.85 K
  activity coefficient: 0.69 ± 0.046
323.05 K
  activity coefficient: 0.7 ± 0.047
333.45 K
  activity coefficient: 0.71 ± 0.047
343.95 K
  activity coefficient: 0.72 ± 0.048

## CCCCCCCCCCC [undecane] + CCCCCC[n+]1ccn(C)c1.O=S(=O)([N-]S(=O)(=O)C(F)(F)F)C(F)(F)F
312.35 K
  activity coefficient: 37.3 ± 2.5
322.85 K
  activity coefficient: 34.1 ± 2.3
333.35 K
  activity coefficient: 30 ± 2
343.75 K
  activity coefficient: 27.7 ± 1.9
354.25 K
  activity coefficient: 26 ± 1.8
